# Measured values as given in article PMC8881610 (Nature Communications, 2022).
# Legend:
# GCGR = assay: cAMP accumulation assay, GCGR WT, mutant or modified constructs; assay type: cell-based, human; settings: GCGR triple mutant (Q142A + D195A + R199A) vs WT
# Procedure: Human embryonic kidney 293 cells containing SV40 large T-antigen (HEK293T) were cultured in DMEM (Gibco) supplemented with 10% (v/v) fetal bovine serum (FBS, Gibco), 1 mM sodium pyruvate (Gibco) and 100 units/mL penicillin and 100 μg/mL streptomycin at 37 °C in 5% CO2. Chinese hamster ovary (CHO-K1) cells were cultured in F-12 (Gibco) containing 10% FBS, 100 units/mL penicillin and 100 μg/mL streptomycin at 37 °C in 5% CO2. For cAMP and receptor expression assays, HEK293T cells were seeded into 6-well cell culture plates at a density of 7 × 10^5 cells per well. After overnight incubation, cells were transfected with GIPR, GLP-1R or GCGR construct using Lipofectamine 2000 or Lipofectamine 3000 transfection reagent (Invitrogen). For whole-cell binding assay, CHO-K1 cells were seeded into 96-well fibronectin-treated cell culture plates at a density of 3 × 10^4 cells per well. After overnight incubation, cells were transfected with GIPR, GLP-1R or GCGR construct using Lipofectamine 2000 transfection reagent (Invitrogen). Following 24 h culturing, the transfected cells were ready for use. […]
# For GIPR, GLP-1R and GCGR, multi-targeting agonist stimulated cAMP accumulation was measured by a LANCE Ultra cAMP kit (PerkinElmer). […] Plates were incubated at RT for 1 h and the fluorescence intensity measured at 620 nm and […] by an EnVision multilabel plate reader (PerkinElmer).
# GLP-1R [1] = biological target: GLP-1R (Homo sapiens, UniProt P43220, D198A/K202A/Y145A); assay: Whole-cell binding assay, competition with 125I-GLP-1(7-36)NH2; parameters: Flag; expressed in transfected cells; settings: GLP-1R Y145A/D198A/K202A, CHO-K1
# Summary of the method: (§1)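 CHO-K1 cells transiently transfected with WT or mutant receptor constructs, washed in F-12 with 0.1% BSA or casein/33 mM HEPES and incubated 2 h at 37 °C. Bound radioactivity counted after Triton lysis; data normalized to WT and fitted to a three-parameter logistic equation.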
# GLP-1R [2] = biological target: GLP-1R (Homo sapiens, UniProt P43220, K202A); assay: as above; parameters: Flag; expressed in transfected cells; settings: GLP-1R K202A, CHO-K1
# Summary of the method: as §1
# GLP-1R [3] = biological target: GLP-1R (Homo sapiens, UniProt P43220, R134A); assay: as above; parameters: Flag; expressed in transfected cells; settings: GLP-1R R134A, CHO-K1
# Summary of the method: as §1
# GLP-1R [4] = biological target: GLP-1R (Homo sapiens, UniProt P43220, Y205A); assay: as above; parameters: Flag; expressed in transfected cells; settings: GLP-1R Y205A, CHO-K1
# Summary of the method: as §1
# GLP-1R [5] = biological target: GLP-1R (Homo sapiens, UniProt P43220, D198A); assay: cAMP accumulation assay, GLP-1R WT, mutant or modified constructs; assay type: cell-based; parameters: Flag; expressed in transfected cells; host or cells: HEK293T; settings: GLP-1R D198A, HEK293T
# Summary of the method: (§2)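 HEK293T cells transiently expressing wild-type, mutant or modified human GLP-1R (HA signal peptide constructs) were used. Cells were stimulated with peptide agonists for 40 min at room temperature in HBSS with 0.5 mM IBMX and 0.1% BSA or casein. cAMP was quantified by LANCE Ultra TR-FRET (620/650 nm).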
# GLP-1R [6] = biological target: GLP-1R (Homo sapiens, UniProt P43220, Q210A); assay: as above; assay type: cell-based; parameters: Flag; expressed in transfected cells; host or cells: HEK293T; settings: GLP-1R Q210A, HEK293T
# Summary of the method: as §2
# GLP-1R [7] = biological target: GLP-1R (Homo sapiens, UniProt P43220, W91A); assay: as above; assay type: cell-based; parameters: Flag; expressed in transfected cells; host or cells: HEK293T; settings: GLP-1R W91A, HEK293T
# Summary of the method: as §2
# [8] = read-out: binding pIC50 (converted)
# [9] = read-out: cAMP pEC50 (converted)
# Chain of GLP-1R (Homo sapiens, UniProt P43220, R134A) (P43220 24-463 R134A): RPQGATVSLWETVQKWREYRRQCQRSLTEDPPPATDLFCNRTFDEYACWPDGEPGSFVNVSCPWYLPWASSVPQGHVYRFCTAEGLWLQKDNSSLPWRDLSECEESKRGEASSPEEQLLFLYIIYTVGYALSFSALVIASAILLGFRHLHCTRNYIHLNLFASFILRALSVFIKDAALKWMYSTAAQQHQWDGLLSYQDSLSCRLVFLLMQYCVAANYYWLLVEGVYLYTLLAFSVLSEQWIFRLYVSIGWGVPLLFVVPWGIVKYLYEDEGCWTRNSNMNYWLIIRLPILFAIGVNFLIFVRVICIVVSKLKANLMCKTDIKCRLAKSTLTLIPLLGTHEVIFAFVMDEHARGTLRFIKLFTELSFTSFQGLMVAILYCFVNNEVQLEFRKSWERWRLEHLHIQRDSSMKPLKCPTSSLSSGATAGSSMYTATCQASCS
# Chain of GLP-1R (Homo sapiens, UniProt P43220, D198A) (P43220 24-463 D198A): as the sequence (P43220 24-463 R134A) above, with A111R, D175A counted along it
# Chain of GLP-1R (Homo sapiens, UniProt P43220, Y205A) (P43220 24-463 Y205A): as the sequence (P43220 24-463 R134A) above, with A111R, Y182A counted along it
# Chain of GLP-1R (Homo sapiens, UniProt P43220, D198A/K202A/Y145A) (P43220 24-463 Y145A/D198A/K202A): as the sequence (P43220 24-463 R134A) above, with A111R, Y122A, D175A, K179A counted along it
# Chain of GLP-1R (Homo sapiens, UniProt P43220, W91A) (P43220 24-463 W91A): as the sequence (P43220 24-463 R134A) above, with W68A, A111R counted along it
# Chain of GLP-1R (Homo sapiens, UniProt P43220, Q210A) (P43220 24-463 Q210A): as the sequence (P43220 24-463 R134A) above, with A111R, Q187A counted along it
# Chain of GLP-1R (Homo sapiens, UniProt P43220, K202A) (P43220 24-463 K202A): as the sequence (P43220 24-463 R134A) above, with A111R, K179A counted along it
smiles,measurement,setting,value
CCCCCCCCCCCCCCCC(=O)N[C@@H](CCC(=O)NCCCC[C@H](NC(=O)[C@H](CC(=O)O)NC(=O)[C@H](CO)NC(=O)[C@@H](NC(=O)[C@H](Cc1ccccc1)NC(=O)[C@@H](NC(=O)CNC(=O)[C@H](CCC(N)=O)NC(=O)C(C)(C)NC(=O)[C@@H](N)Cc1c[nH]cn1)[C@@H](C)O)[C@@H](C)O)C(=O)N[C@@H](CO)C(=O)N[C@@H](CCCCN)C(=O)N[C@@H](Cc1ccc(O)cc1)C(=O)N[C@@H](CC(C)C)C(=O)N[C@@H](CC(=O)O)C(=O)N[C@@H](CCC(=O)O)C(=O)N[C@@H](CCCNC(=N)N)C(=O)N[C@@H](C)C(=O)N[C@@H](C)C(=O)N[C@@H](CCC(N)=O)C(=O)N[C@@H](CC(=O)O)C(=O)N[C@@H](Cc1ccccc1)C(=O)N[C@H](C(=O)N[C@@H](CCC(N)=O)C(=O)N[C@@H](Cc1c[nH]c2ccccc12)C(=O)N[C@@H](CC(C)C)C(=O)N[C@@H](CC(C)C)C(=O)N[C@@H](CC(=O)O)C(=O)NCC(=O)NCC(=O)N1CCC[C@H]1C(=O)N[C@@H](CO)C(=O)N[C@@H](CO)C(=O)NCC(=O)N[C@@H](C)C(=O)N1CCC[C@H]1C(=O)N1CCC[C@H]1C(=O)N1CCC[C@H]1C(=O)N[C@@H](CO)C(N)=O)C(C)C)C(=O)O [Peptide 20],reduction of potency (cAMP) by receptor mutation,GCGR,93 fold
same,binding Span,GLP-1R [1],10.85 ± 36.78 % WT
same,IC50,GLP-1R [1]; [8],1780 nM
same,binding Span,GLP-1R [2],15.32 ± 1.82 % WT
same,IC50,GLP-1R [2]; [8],3.47 nM
same,binding Span,GLP-1R [3],73.44 ± 3.42 % WT
same,IC50,GLP-1R [3]; [8],3.02 nM
same,binding Span,GLP-1R [4],6.01 ± 3.17 % WT
same,IC50,GLP-1R [4]; [8],50.1 nM
same,EC50,GLP-1R [5]; [9],0.00447 nM
same,Emax,GLP-1R [5]; HEK-293T,99.9 ± 1.82%
same,EC50,GLP-1R [6]; [9],0.00562 nM
same,Emax,GLP-1R [6]; HEK-293T,102 ± 1.27%
same,EC50,GLP-1R [7]; [9],0.00603 nM
same,Emax,GLP-1R [7]; HEK-293T,100 ± 1.33%
